This note sets out measurements from patent EP0488424B1, “Recombinant DNA sequences encoding feedback inhibition released enzymes, plasmids comprising the recombinant DNA sequences, transformed microorganisms useful in the production of aromatic amino acids, and a process for preparing aromatic amino acids by fermentation” (priority 1990, dated 1992).

What all share (assay type): biochemical
Test [1] addresses T1, Escherichia coli 3-deoxy-D-arabinoheptulonic acid-7-phosphate synthase (DS) encoded by aroF, wild type (pTS-aroF) (Escherichia coli, UniProt P00888).
T1 construct: cloning the natural DS gene of Escherichia coli; made in house; host or cells: Escherichia coli AB3257 (aroF, aroG, aroH deleted), crude enzyme solution
Briefly: DS enzyme activity in the presence of L-tyrosine (crude enzyme solution). Particulars: crude enzyme of AB3257/pTS-aroF; concentration not stated in text (Fig. 2). From the text:
(§1) The above plasmids, bearing either mutant aroF (pTS-aroF15 and pTS-aroF33) or mutant aroG (pTS-aroG4, pTS-aroG8, pTS-aroG15, pTS-aroG17, pTS-aroG29 and pTS-aroG40), were used to transform Escherichia coli AB3257 strain having no DS activity. The respective transformants were named AJ 12598 (AB3257/pTS-aroF15), AJ 12599 (AB3257/pTS-aroF33), AJ 12562 (AB3257/pTS-aroG4), AJ 12600 (AB3257/pTS-aroG8), AJ 12563 (AB3257/pTS-aroG15), AJ 12601 (AB3257/pTS-aroG17), AJ 12602 (AB3257/pTS-aroG29) and AJ 12603 (AB3257/pTS-aroG40), respectively. Among them, AJ 12563 and AJ 12603 were deposited as representative strains in the Fermentation Research Institute of the Agency of Industrial Science & Technology of Japan, under the deposit numbers Escherichia coli FERM BP-3567 and FERM BP-3568, respectively. For the purpose of comparison, plasmids hearing wild type genes were also used to transform the E. coli AB3257 strain.
(§2) Each of these strains were cultured for 24 hours in a known L-phenylalanine-producing medium [Sugimoto, S. et al., J. Biotechnol., 5, 237 (1988)]. From the culture cells, the crude enzyme solution was prepared by ultrasonic homogenization. The enzyme activity of DS was determined in a conventional manner [Gollub, E. et al., Methods Enzymol., 17, 349], in the presence of L-tyrosine in the case of aroF, and in the presence of L-phenylalanine in the case of aroG.

Test [2] addresses T2, Escherichia coli DS encoded by aroF, variant aroF15, 147 Asp → Asn (pTS-aroF15) (Escherichia coli, UniProt P00888, D147N).
T2 construct: cloning the natural DS gene of Escherichia coli; made in house; host or cells: Escherichia coli AB3257 (strain AJ 12598), crude enzyme solution
The description is as above. Particulars: crude enzyme of AJ 12598 (AB3257/pTS-aroF15); concentration not stated in text (Fig. 2).
Text: as §1, §2

The target in test [3] is T3, Escherichia coli DS encoded by aroF, variant aroF33, 181 Ser → Phe (pTS-aroF33) (Escherichia coli, UniProt P00888, S181F).
T3 construct: cloning the natural DS gene of Escherichia coli; made in house; host or cells: Escherichia coli AB3257 (strain AJ 12599), crude enzyme solution
The test is described as above. Particulars: crude enzyme of AJ 12599 (AB3257/pTS-aroF33); concentration not stated in text (Fig. 2).
Text: as §1, §2

Test [4] concerns the target T4, Escherichia coli chorismate mutase-prephenate dehydratase (CM-PD), wild type (Escherichia coli, UniProt P0A9J8).
T4 construct: the natural CM-PD gene of Escherichia coli is cloned; made in house
Briefly: PD enzyme activity in the presence of L-phenylalanine (crude enzyme). Particulars: 0.5 mM L-phenylalanine; 1 mM barium prephenate, 0.5 mM L-tyrosine, pH 8.2, 37°C, 10 minutes; Fig. 4. On the procedure:
(§3) Escherichia coli K-12 W3110 (tyrA)/(pPHAB) strain was cultured at 37°C for 15 hours in L medium and the cells were collected by centrifugation. Then, the cells were washed twice with physiological saline, and suspended in 250 mM Tris-hydrochloride buffer (pH 7.5) containing 0.5 mM dithiothreitol under ice cooling. By ultrasonication (20 KHz) for 30 seconds four times, the crude enzyme solution was prepared.
(§4) The PD enzyme activity was determined in a conventional manner [Cotton, R.G.H. and Gibson, F., Meth. in Enzymol., 17, 564 (1970)]. Using the crude enzyme, the enzymatic reaction was carried out at 37°C for 10 minutes in the presence of 50 mM Tris-hydrochloride buffer (pH 8.2) containing 1 mM barium prephenate and 0.5 mM L-tyrosine. Aqueous sodium hydroxide (1 N) was added to terminate the reaction, and the formed phenylpyruvic acid was measured at an extinction wavelength of 320 nm.
(§5) Quantitative determination of protein was made using the Protein Assay Kit (manufactured by Bio Rad Co.), according to the protocol of the manufacturer.

Test [5] deals with T5, Escherichia coli K-12 chorismate mutase-prephenate dehydratase (CM-PD), variant with 330 serine residue substituted with a proline residue (pPHAB) (Escherichia coli, UniProt P0A9J8, S330P).
T5 construct: the natural CM-PD gene of Escherichia coli is cloned; made in house; host or cells: Escherichia coli K-12 W3110 (tyrA), crude enzyme solution
The test is described as above. Particulars: 5 mM L-phenylalanine; 1 mM barium prephenate, 0.5 mM L-tyrosine, pH 8.2, 37°C, 10 minutes; Fig. 4. On the procedure: as §3, §4, §5

Test [6] deals with T6, Escherichia coli K-12 chorismate mutase-prephenate dehydratase (CM-PD), variant with amino acid residues downstream from the 330 serine residue deleted (pPHATer (Escherichia coli, UniProt P0A9J8)).
T6 construct: made in house; host or cells: Escherichia coli W3110 (tyrA), crude enzyme
The test is described as above. Particulars: crude enzyme of W3110 (tyrA)/(pPHATerm); concentration not given. On the procedure:
as §3, §4, §5
(§6) By using the same method above, the PD enzyme activities of Escherichia coli W3110 (tyrA)/(pPHAD) and Escherichia coli W3110 (tyrA)/(pPHATerm) were determined.

Test [7] deals with T7, Escherichia coli K-12 chorismate mutase-prephenate dehydratase (CM-PD), variant with 330 serine residue substituted with an aspartic acid (pPHAD) (Escherichia coli, UniProt P0A9J8, S330D).
T7 construct: the natural CM-PD gene of Escherichia coli is cloned; made in house; host or cells: Escherichia coli W3110 (tyrA), crude enzyme
The description is as above. Particulars: crude enzyme of W3110 (tyrA)/(pPHAD); concentration not given. On the procedure:
as §3, §4, §5, §6

Test [8] deals with T8, Escherichia coli DS encoded by aroG, variant aroG8, 202 Ala → Thr (pTS-aroG8) (Escherichia coli, UniProt P0AB91, A202T).
T8 construct: cloning the natural DS gene of Escherichia coli; made in house; host or cells: Escherichia coli AB3257 (strain AJ 12600), crude enzyme solution
Briefly: DS enzyme activity in the presence of L-phenylalanine (crude enzyme solution). Particulars: crude enzyme of AJ 12600 (AB3257/pTS-aroG8); Fig. 3.
Text: as §1, §2

In test [9] the target is T9, Escherichia coli DS encoded by aroG, variant aroG4, 150 Pro → Leu (pTS-aroG4, strain AJ 12562) (Escherichia coli, UniProt P0AB91, P150L).
T9 construct: cloning the natural DS gene of Escherichia coli; made in house; host or cells: Escherichia coli AB3257 (strain AJ 12562), crude enzyme solution
Described as above. Particulars: crude enzyme of AJ 12562 (AB3257/pTS-aroG4); Fig. 3.
Text: as §1, §2

Test [10] has as its target T10, Escherichia coli DS encoded by aroG, variant aroG17, 147 Met → Ile, 332 Glu → Lys (pTS-aroG17) (Escherichia coli, UniProt P0AB91, E332K/M147I).
T10 construct: cloning the natural DS gene of Escherichia coli; made in house; host or cells: Escherichia coli AB3257 (strain AJ 12601), crude enzyme solution
The description is as above. Particulars: crude enzyme of AJ 12601 (AB3257/pTS-aroG17); Fig. 3.
Text: as §1, §2

Test [11] has as its target T11, Escherichia coli DS encoded by aroG, variant aroG15, 146 Asp → Asn (pTS-aroG15) (Escherichia coli, UniProt P0AB91, D146N).
T11 construct: cloning the natural DS gene of Escherichia coli; made in house; host or cells: Escherichia coli AB3257 (strain AJ 12563), crude enzyme solution
The description is as above. Particulars: crude enzyme of AJ 12563 (AB3257/pTS-aroG15); Fig. 3.
Text: as §1, §2

For test [12], the target named is T12, Escherichia coli DS encoded by aroG, variant aroG40, 157 Met → Ile, 219 Ala → Thr (pTS-aroG40) (Escherichia coli, UniProt P0AB91, A219T/M157I).
T12 construct: cloning the natural DS gene of Escherichia coli; made in house; host or cells: Escherichia coli AB3257 (strain AJ 12603), crude enzyme solution
Described as above. Particulars: crude enzyme of AJ 12603 (AB3257/pTS-aroG40); Fig. 3.
Text: as §1, §2

Test [13] addresses T13, Escherichia coli DS encoded by aroG, variant aroG29, 147 Met → Ile (pTS-aroG29) (Escherichia coli, UniProt P0AB91, M147I).
T13 construct: cloning the natural DS gene of Escherichia coli; made in house; host or cells: Escherichia coli AB3257 (strain AJ 12602), crude enzyme solution
The test is described as above. Particulars: crude enzyme of AJ 12602 (AB3257/pTS-aroG29); Fig. 3.
Text: as §1, §2

The target in test [14] is T14, Escherichia coli 3-deoxy-D-arabinoheptulonic acid-7-phosphate synthase (DS) encoded by aroG, wild type (pTS-aroG) (Escherichia coli, UniProt P0AB91).
T14 construct: cloning the natural DS gene of Escherichia coli; made in house; host or cells: Escherichia coli AB3257 (no DS activity), crude enzyme solution
The test is described as above. Particulars: crude enzyme of AB3257/pTS-aroG; concentration not stated in text (Fig. 3).
Text: as §1, §2

Take `N[C@@H](Cc1ccc(O)cc1)C(=O)O` [L-tyrosine]: the results for the “inhibition by L-tyrosine of DS enzyme activity” value in test [1], in test [2] and in [3] were “strongly inhibited”, “released from feedback inhibition” and “released from feedback inhibition”, respectively.

Turning to `N[C@@H](Cc1ccccc1)C(=O)O` [L-phenylalanine], the “inhibition by L-phenylalanine of prephenate dehydratase activity” value in [4] was “strongly inhibited”; in test [5] it was “almost no inhibition”. Moreover, the “feedback inhibition by L-phenylalanine of PD enzyme activity” value in test [6] and in test [7] was “released from feedback inhibition” in each case. The “inhibition by L-phenylalanine of DS enzyme activity” value in test [8] was “feedback inhibition by L-phenylalanine is released”; in test [9], “releases feedback inhibition”; in test [10], “feedback inhibition by L-phenylalanine is released”; in test [11], “feedback inhibition by L-phenylalanine is released”; in test [12] it was “feedback inhibition by L-phenylalanine is released”; in [13] it was “feedback inhibition by L-phenylalanine is released”. In test [14], the “inhibition by L-phenylalanine of DS enzyme activity” value was “strongly inhibited”. For the same compound, the “DS enzyme activity as a function of L-phenylalanine concentration” value in test [9] was “increases as the concentration of L-phenylalanine increases”.
